Activity calls are given as the source filed them. The rule behind the calls is not given here.
How the values were obtained:
[1] = target: G-protein coupled bile acid receptor 1 (Homo sapiens, UniProt Q8TDU6); test: Activation of TGR5 (unknown origin) transfected in human NCI-H716 cells assessed as increase in cAMP production incubated for 24 hrs by HTR-FRET assay; type: functional, cell-based
[2] = target: T1, Fatty acid-binding protein, liver (Homo sapiens) (UniProt P07148); test: Displacement of 8-anilino-1-naphthalene-sulfonic acid from FABP1 (unknown origin) at 10 uM incubated for 3 mins by fluorescence based assay relative to control
T1 sequence (whole entry): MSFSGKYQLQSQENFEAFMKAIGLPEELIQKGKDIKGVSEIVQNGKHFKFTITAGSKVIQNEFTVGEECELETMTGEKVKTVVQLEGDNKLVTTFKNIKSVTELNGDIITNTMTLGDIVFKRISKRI

[3] = Metabolic stability in Sprague-Dawley rat liver microsomes assessed as parent compound remaining incubated for 1 hr by LC-MS analysis; type: ADME, Microsome; settings: read-out: Stability
[4] = Metabolic stability in rhesus monkey liver microsomes assessed as parent compound remaining incubated for 1 hr by LC-MS analysis; type: ADME, Macaca mulatta, Microsome; settings: read-out: Stability
Vitamin D3 receptor = Vitamin D3 receptor (Homo sapiens, UniProt P11473); test: Activation of VP16-fused VDR-LBD (unknown origin) incubated for 18 hrs in presence of substrate by luciferase assay
[5] = target: T2, Bile acid receptor (Mus musculus) (UniProt Q60641); test: Activation of FXR in C57BL/6 mouse ileum assessed as upregulation of SHP gene expression at 20 mg/kg, po administered for 5 days and measured after 1 hr post final dose by RT-PCR analysis; type: organism-based; settings: filed as activator, time 5.0 day
T2 sequence (whole entry): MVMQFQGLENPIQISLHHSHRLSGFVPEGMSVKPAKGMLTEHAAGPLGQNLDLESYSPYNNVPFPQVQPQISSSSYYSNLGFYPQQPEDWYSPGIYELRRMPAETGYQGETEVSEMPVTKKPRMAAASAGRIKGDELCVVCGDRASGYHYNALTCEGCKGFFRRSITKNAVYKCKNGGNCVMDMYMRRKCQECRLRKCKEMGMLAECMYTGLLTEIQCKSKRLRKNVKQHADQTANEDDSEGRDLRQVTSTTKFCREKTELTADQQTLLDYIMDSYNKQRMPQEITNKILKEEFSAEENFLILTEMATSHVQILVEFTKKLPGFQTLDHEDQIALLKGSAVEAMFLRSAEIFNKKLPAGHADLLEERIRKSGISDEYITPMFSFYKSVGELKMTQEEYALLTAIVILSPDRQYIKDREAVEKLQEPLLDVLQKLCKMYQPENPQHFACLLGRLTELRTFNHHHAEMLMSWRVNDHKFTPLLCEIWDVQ

[6] = target: T2, Bile acid receptor (Mus musculus); test: Activation of FXR in C57BL/6 mouse ileum assessed as upregulation of FGF15 gene expression in ileum at 20 mg/kg, po administered for 5 days and measured after 1 hr post final dose by RT-PCR analysis; type: organism-based; settings: filed as activator, time 5.0 day
Mus musculus [7] = test: Anti-NASH activity in western diet and CCl4-induced nonalcoholic steatohepatitis C57BL/6 mouse assessed as reduction in liver weight ratio at 20 mg/kg, po administered for 12 weeks starting from week 8 and change in dose for every 5 days; type: functional, organism-based; settings: time 4.0 weeks
Mus musculus [8] = test: Anti-NASH activity in western diet and CCl4-induced nonalcoholic steatohepatitis C57BL/6 mouse assessed as alleviation of lobular inflammation at 20 mg/kg, po administered for 12 weeks starting from week 8 and change in dose for every 5 days; type: functional, organism-based; settings: time 4.0 weeks
Mus musculus [9] = test: Anti-NASH activity in western diet and CCl4-induced nonalcoholic steatohepatitis C57BL/6 mouse assessed as alleviation of ballooning at 20 mg/kg, po administered for 12 weeks starting from week 8 and change in dose for every 5 days; type: functional, organism-based; settings: time 4.0 weeks
Mus musculus [10] = test: Anti-NASH activity in western diet and CCl4-induced nonalcoholic steatohepatitis C57BL/6 mouse assessed as reduction in MCP-1 level at 20 mg/kg, po administered for 12 weeks starting from week 8 and change in dose for every 5 days by ELISA; type: functional, organism-based; settings: time 4.0 weeks
Mus musculus [11] = test: Antioxidant activity in western diet and CCl4-induced nonalcoholic steatohepatitis C57BL/6 mouse model assessed as increase in glutathione peroxidase level at 20 mg/kg, po administered for 12 weeks starting from week 8 and change in dose for every 5 days; type: functional, organism-based; settings: time 4.0 weeks
[12] = Subacute toxicity in ICR mouse assessed as abnormal behaviour at 500 mg/kg/day, po administered for 14 days; type: organism-based; settings: in vivo, 336 h, time 14 day
[13] = Subacute toxicity in ICR mouse assessed as changes in food intake at 500 mg/kg/day, po administered for 14 days; type: organism-based; settings: in vivo, 336 h, time 14 day
[14] = Subacute toxicity in ICR mouse assessed as changes in serum AST level at 500 mg/kg/day, po administered for 14 days; type: organism-based; settings: in vivo, 336 h, time 14 day
[15] = Subacute toxicity in ICR mouse assessed as changes in serum DBIL level at 500 mg/kg/day, po administered for 14 days; type: organism-based; settings: in vivo, 336 h, time 14 day
[16] = Subacute toxicity in ICR mouse assessed as reduction in serum ALP level at 500 mg/kg/day, po administered for 14 days; type: organism-based; settings: in vivo, 336 h, time 14 day

Chain of Vitamin D3 receptor (P11473 whole entry, the tested form may be a part): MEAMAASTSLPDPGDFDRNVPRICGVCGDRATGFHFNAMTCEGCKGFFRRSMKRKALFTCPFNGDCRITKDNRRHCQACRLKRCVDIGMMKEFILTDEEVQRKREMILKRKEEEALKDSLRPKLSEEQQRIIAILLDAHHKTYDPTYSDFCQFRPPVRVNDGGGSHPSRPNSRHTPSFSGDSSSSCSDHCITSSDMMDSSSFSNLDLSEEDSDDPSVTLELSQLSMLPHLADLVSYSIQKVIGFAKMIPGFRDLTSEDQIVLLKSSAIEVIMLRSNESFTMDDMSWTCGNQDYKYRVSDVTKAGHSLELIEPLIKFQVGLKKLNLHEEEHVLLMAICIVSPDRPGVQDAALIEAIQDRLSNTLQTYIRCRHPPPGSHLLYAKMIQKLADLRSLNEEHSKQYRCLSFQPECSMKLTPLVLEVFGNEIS
Chain of G-protein coupled bile acid receptor 1 (Q8TDU6 whole entry): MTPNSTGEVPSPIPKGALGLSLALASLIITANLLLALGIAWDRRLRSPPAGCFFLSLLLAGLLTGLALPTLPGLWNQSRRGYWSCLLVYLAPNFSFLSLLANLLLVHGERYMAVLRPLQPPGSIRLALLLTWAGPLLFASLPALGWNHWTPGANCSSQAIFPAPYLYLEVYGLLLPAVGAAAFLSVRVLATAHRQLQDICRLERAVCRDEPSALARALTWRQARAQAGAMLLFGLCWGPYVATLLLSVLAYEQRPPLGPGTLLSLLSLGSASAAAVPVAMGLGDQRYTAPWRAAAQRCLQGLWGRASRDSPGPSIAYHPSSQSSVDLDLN

O=C(O)C1(c2cccc(-c3ccc(OCc4c(-c5c(Cl)cccc5Cl)noc4C4CC4)cc3)c2)CC1
EC50 [1]: > 10 µM | inhibition [2]: 83.6% | remaining at 1 h [3]: 68.6% | remaining at 1 h [4]: 71% | EC50 (Vitamin D3 receptor): > 10 µM | Activity [5]: Active | Activity [6]: Active | Activity (Mus musculus [7]): Active | Activity (Mus musculus [8]): Active | Activity (Mus musculus [9]): Active | Activity (Mus musculus [10]): Active | Activity (Mus musculus [11]): Active | Activity [12]: Non-Toxic | Activity [13]: Non-Toxic | Activity [14]: Non-Toxic | Activity [15]: Non-Toxic | Activity [16]: Non-Toxic

Source: ChEMBL document CHEMBL5338751, “Discovery of the First-in-Class Intestinal Restricted FXR and FABP1 Dual Modulator ZLY28 for the Treatment of Nonalcoholic Fatty Liver Disease” (J Med Chem, 2023)
